For six compounds, Kd results are on record in ChEMBL document CHEMBL1133320, “Inhibition of the ras-dependent mitogenic pathway by phosphopeptide prodrugs with antiproliferative properties” (Bioorg Med Chem Lett, 2000).

In test [1] the target is T1, Growth factor receptor-bound protein 2 (Homo sapiens, UniProt P62993). In words: Dissociation constant of compound was determined from affinity of compound towards Growth factor receptor bound protein 2 measured by fluorescence.
The target in test [2] is T1, Growth factor receptor-bound protein 2. In words: Dissociation constant of compound was determined from affinity of compound towards Growth factor receptor bound protein 2 measured by fluorescence; Non-detectable.

Numbered stars: 1 amine (or outer) side, 2 acyl side, 3 side chain; on linkers, the order of the positions; unused ones are H or OH. Square brackets hold non-standard residues; d marks the D form. Peptide text beside a SMILES is read from it. ξ: configuration not given here. X2 = CC(C)(C)C(=O)SCCOP(=O)(OCCSC(=O)C(C)(C)C)Oc1ccc(C[C@H](N[*:1])C(=O)[*:2])cc1; X1 = CC(=O)SCCOP(=O)(OCCSC(C)=O)Oc1ccc(C[C@H](N[*:1])C(=O)[*:2])cc1; F2Pmp = N[C@@H](Cc1ccc(C(F)(F)P(=O)(O)O)cc1)C(=O)O; Pmp = N[C@@H](Cc1ccc(CP(=O)(O)O)cc1)C(=O)O; pY = N[C@@H](Cc1ccc(OP(=O)(O)O)cc1)C(=O)O; ξP = O=C(O)C1CCCN1

T1 sequence (P62993 whole entry): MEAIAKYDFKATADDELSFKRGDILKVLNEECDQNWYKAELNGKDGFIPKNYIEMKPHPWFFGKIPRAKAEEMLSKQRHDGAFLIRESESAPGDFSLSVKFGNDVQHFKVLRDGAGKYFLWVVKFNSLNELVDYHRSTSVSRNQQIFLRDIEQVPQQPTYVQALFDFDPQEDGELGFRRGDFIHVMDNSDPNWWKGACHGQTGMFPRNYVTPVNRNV

Broadly, the Kd is the free concentration of one partner at which half of the binding sites on the other are occupied at equilibrium, for simple one-to-one binding. In turn, `CC(C)[C@H](NC(=O)[C@H](CC(N)=O)NC(=O)[C@@H](NC(=O)[C@H](Cc1ccc(CP(=O)(O)O)cc1)NC(=O)[C@H](CO)NC(=O)[C@@H]1CCCN1)C(C)C)C(=O)N[C@@H](CCC(N)=O)C(=O)N[C@@H](CC(N)=O)C(=O)O` (H-PS[Pmp]VNVQN-OH) returned a Kd in test [1] of 260 nM.

Regarding `CC(=O)N1CCC[C@H]1C(=O)N[C@@H](Cc1ccccc1)C(=O)N[C@@H](Cc1ccc(OP(=O)(OCCSC(=O)C(C)(C)C)OCCSC(=O)C(C)(C)C)cc1)C(=O)N[C@H](C(=O)N[C@@H](CC(N)=O)C(=O)N[C@H](C(=O)N1CCCC1C(N)=O)C(C)C)C(C)C` (stereo partly specified) (Ac-PF[X2]VNV[ξP]-NH2), in test [2], the Kd entry was “Not Active”.

For `CC(=O)SCCOP(=O)(OCCSC(C)=O)Oc1ccc(C[C@H](NC(=O)[C@H](Cc2ccccc2)NC(=O)[C@@H]2CCCN2C(C)=O)C(=O)N[C@H](C(=O)N[C@@H](CC(N)=O)C(=O)N[C@H](C(=O)N2CCC[C@H]2C(N)=O)C(C)C)C(C)C)cc1` (Ac-PF[X1]VNVP-NH2), the Kd entry in test [2] is on record as “Not Active”.

For the compound `CC(=O)N1CCC[C@H]1C(=O)N[C@@H](Cc1ccccc1)C(=O)N[C@@H](Cc1ccc(OP(=O)(O)O)cc1)C(=O)N[C@H](C(=O)N[C@@H](CC(N)=O)C(=O)N[C@H](C(=O)N1CCC[C@H]1C(N)=O)C(C)C)C(C)C` (Ac-PF[pY]VNVP-NH2), the Kd in test [1] was 30 nM.

The compound `CC(C)[C@H](NC(=O)[C@H](CC(N)=O)NC(=O)[C@@H](NC(=O)[C@H](Cc1ccc(C(F)(F)P(=O)(O)O)cc1)NC(=O)[C@H](CO)NC(=O)[C@@H]1CCCN1)C(C)C)C(=O)N[C@@H](CCC(N)=O)C(=O)N[C@@H](CC(N)=O)C(=O)O` (H-PS[F2Pmp]VNVQN-OH) had a Kd in test [1] of 200 nM. Take `CC(C)[C@H](NC(=O)[C@H](CC(N)=O)NC(=O)[C@@H](NC(=O)[C@H](Cc1ccc(OP(=O)(O)O)cc1)NC(=O)[C@H](CO)NC(=O)[C@@H]1CCCN1)C(C)C)C(=O)N[C@@H](CCC(N)=O)C(=O)N[C@@H](CC(N)=O)C(=O)O` (H-PS[pY]VNVQN-OH): the Kd in test [1] was 18 nM.
